The IC50 is the concentration at which inhibition is half-maximal.

Here are results for eleven compounds from patent US7153824B2, “Inhibitors of phosphodiesterases in infertility” (Applied Research Systems ARS Holding N.V., priority 2003, dated 2006).

Entries after “also recorded” stand apart in the source; their conditions may differ.

Experiment [1] concerns Immature Sprague Dawley CD (SD) BR female rats. Nature of the experiment: In vivo Rat Follicle Maturation Assay (ovulated oocytes after r-hCG). The settings on record: for ovulatable oocytes compared with high dose of FSH alone: 0.4 mg/kg combined with low dose of FSH; for effect on FSH-induced follicle maturation: in vivo, with FSH.
Another experiment concerns PDE1. To be noted: cited from earlier work.
The target in the next experiment is PDE5 (Homo sapiens, UniProt O76074). The settings on record: cited from earlier work.
For experiment [2], the system named is Immature Sprague Dawley CD (SD) BR female rats. As to the kind of experiment: Histological count of secondary and antral follicles in rat ovaries. It counts as in vivo.
In the next experiment the test system is PDE3. The settings on record: cited from earlier work.
The mark [3] stands for this setting: test compound 1 mg/kg×4 injections s.c. in NP3S with Low Dose FSH.
Setting [4] is: test compound 1 mg/kg×4 s.c. in NP3S with Low Dose FSH.
Setting [5] is: test compound 5 mg/kg×4 injections s.c. in NP3S with Low Dose FSH.
The mark [6] stands for this setting: test compound 5 mg/kg×4 s.c. in NP3S with Low Dose FSH.
[7] abbreviates: test compound 25 mg/kg×4 injections s.c. in NP3S with Low Dose FSH.
Setting [8] is: test compound 25 mg/kg×4 s.c. in NP3S with Low Dose FSH.
Setting [9] is: test compound 5 mg/kg×4 s.c. in aqueous vehicle with Low Dose FSH.

With `O=C(Nc1c(Cl)cncc1Cl)c1ccc(OC(F)F)c(OCC2CC2)c1` [Roflumilast], in experiment [1], the “ovulatable oocytes compared with high dose of FSH alone” value is on record as “produces more ovulatable oocytes than even the high dose of FSH alone” and the “effect on FSH-induced follicle maturation” value is on record as “increased FSH-induced follicle maturation”.
For the compound `OCCN(CCO)c1nc(N2CCCCC2)c2nc(N(CCO)CCO)nc(N3CCCCC3)c2n1` [Dipyridamole], the results for the “average number of oocytes per rat” value in experiment [1] (setting [3]), in experiment [1] (setting [5]) and in experiment [1] (setting [7]) were 7.5, 6.8 and 6.2, respectively. Moreover, the rats ovulated in experiment [1] (setting [4]) is reported as 7 out of 10; in experiment [1] (setting [6]) it was 6 out of 10; in experiment [1] (setting [8]), 10 out of 10. Moreover, the “Follicular growth activity with Low FSH?” value in experiment [1] is “YES”.
Regarding `COc1ccc([C@H](Cc2ccncc2)c2ccccc2)cc1OC1CCCC1` [CDP840], in experiment [1], the “Follicular growth activity with Low FSH?” value is listed as “Inhibits follicular growth”.
As for “5′-Methyl-2′(biphenylylmethyl)-3′-(phenylmethyl)spiro[cyclopentane-1,7′(8′h)-[3H]imidazo[2,1-b]purin]-4(5′h)-one [Compound no. 33]”, the “average number of oocytes per rat” value in experiment [1] (setting [7]) is 27. Moreover, in experiment [1], the “Follicular growth activity with Low FSH?” value is recorded as “YES”. For the same compound, the IC50 with PDE1 is 0.6 nM; at PDE5 it was 200 nM.
In the case of `COc1ccc([C@]2(C#N)CC[C@@H](C(=O)O)CC2)cc1OC1CCCC1` [ARIFLO (Cilomilast), Cilomilast], the “Follicular growth activity with Low FSH?” value in experiment [1] was “Inhibits follicular growth”.
With `CCCc1nn(C)c2c(=O)[nH]c(-c3cc(S(=O)(=O)N4CCN(C)CC4)ccc3OCC)nc12` [Sildenafil, 5-[2-ethoxy-5-(4-methyl-1-piperazinylsulphonyl)phenyl]-1-methyl-3-n-propyl-1,6-dihydro-7H-pyrazolo[4,3-d]pyrimidin-7-one], the “number of ovulated oocytes per rat as compared to Low Dose FSH alone plus aqueous vehicle control” value in experiment [1] (1, 5 and 25 mg/kg×4 s.c. in aqueous vehicle with Low Dose FSH) is on record as “dose-related increase”. The “average number of oocytes per rat” value in experiment [1] (setting [3]) is given as 3.5; in experiment [1] (setting [5]), 5.5; in experiment [1] (setting [9]), 20; in experiment [1] (setting [7]) it was 6.9. Moreover, the rats ovulated in experiment [1] (setting [4]) is listed as 6 out of 8; in experiment [1] (setting [6]), 5 out of 8; in experiment [1] (setting [9]), 7 out of 8; in experiment [1] (setting [8]) it was 7 out of 8. The “Follicular growth activity with Low FSH?” value in experiment [1] is “YES”. Moreover, the “total number of antral follicles per rat (2 ovaries)” value in experiment [2] (Low FSH + 75 mg/kg Sildenafil) is reported as 7.4. In addition, the “total number of secondary follicles per rat (2 ovaries)” value in experiment [2] (Low FSH + 75 mg/kg Sildenafil (25 mg/kg×3)) stood at 84. The half-maximal inhibitory concentration (IC50) with PDE1 is 260 nM; in the experiment on PDE3 it was […].
As for `CCCOc1ccccc1-c1nc2nn[nH]c2c(=O)[nH]1` [Zaprinast], the “average number of oocytes per rat” value worked out at 3.25 in experiment [1] (setting [3]), 6.4 in experiment [1] (setting [5]) and 9.5 in experiment [1] (setting [7]). For the same compound, the values for the rats ovulated in experiment [1] (setting [4]), in experiment [1] (setting [6]) and in experiment [1] (setting [8]) were 6 out of 10, 9 out of 10 and 10 out of 10, respectively. Moreover, the “Follicular growth activity with Low FSH?” value in experiment [1] is reported as “YES”. Moreover, the half-maximal inhibitory concentration (IC50) in the experiment with PDE1 was 9400 nM; in the experiment with PDE3, > 100000 nM.
“(6aR,9aS)-2-(Biphenylylmethyl)-5,6a,7,8,9,9a-hexahydro-5-methyl-3(phenylmethyl)cyclopent[4,5]imidazo-[2,1-b]purin-4(3H)-one [Compound no. 31]”: the “average number of oocytes per rat” value in experiment [1] (setting [7]) is given as 18. The “Follicular growth activity with Low FSH?” value in experiment [1] is “YES”. The figures for the IC50 in the experiment with PDE1 and at PDE5 were 0.07 nM and 305 nM, respectively.
Consider `COc1ccc(C(=O)Nc2c(Cl)cncc2Cl)cc1OC1CCCC1` [Piclamilast], for which, in experiment [1], the “ovulatable oocytes compared with high dose of FSH alone” value is reported as “produces more ovulatable oocytes than even the high dose of FSH alone” and the “effect on FSH-induced follicle maturation” value is recorded as “increased FSH-induced follicle maturation”. Moreover, the “follicle maturation, compound alone” value in experiment [1] (2 mg/kg, without co-administration of FSH) was “did induce follicle maturation; also recorded: increased the hCG ovulatable oocytes”. The “follicle maturation, compound alone” value in experiment [1] (0.08 and 0.4 mg/kg, absence of exogenous FSH) was “not sufficient to induce follicle maturation”. In addition, the “follicle maturation (number of ovulatable oocytes)” value in experiment [1] (in the presence of low doses of FSH) was “very marked induction in follicle maturation”.
Take `CN1CC(=O)N2[C@H](c3ccc4c(c3)OCO4)c3[nH]c4ccccc4c3C[C@@H]2C1=O` [Tadalafil, (6R,12aR)-2,3,6,7,12,12a-hexahydro-2-methyl-6-(-3,4-methylenedioxyphenyl)pyrazino[2′,1′:6,1]pyrido[3,4-b]indole-1,4-dione]: the “average number of oocytes per rat” value in experiment [1] (test compound 25 mg/kg×4 s.c. in water with Low Dose FSH) was found to be 16. The “Follicular growth activity with Low FSH?” value in experiment [1] was “YES”. Besides, in the experiment on PDE1, the IC50 is > 30000 nM.
With `CCCOc1cc([C@]2(C)CNC(=O)O2)ccc1OC` [Mesopram], the “follicular maturation, lower dose series” value in experiment [1] (0.032, 0.016, 0.08 mg/kg together with a low dose of FSH, significance at 0.08 mg/kg) was “dose dependent increase in follicular maturation”. Also, the “follicular maturation versus low FSH alone” value in experiment [1] (0.08, 0.4, and 2 mg/kg/day together with a low dose of FSH) was “significant enhancement of follicular maturation”. The “follicular maturation at higher doses” value in experiment [1] (higher doses of the 0.08-2 mg/kg/day series, with low dose FSH) is given as “decrease in follicular maturation”.
